{"source": "PubChem BioAssay AID1259333", "about": "(Broad Institute, 2017)", "note": "Where “and” joins values, the source holds several entries; their conditions need not be identical. Equal entries are not always repeated. Calls of active or inactive are those of the source. The rule behind the calls is not given here; tested in parental BL2 cells.", "data": [{"assay": "loss of cell viability by ATP content – CellTiter-Glo, cytotoxicity control, dose response (AID 1259333);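 note: 0% = vehicle neutral controls and -100% = reference inhibitor positive controls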", "settings": "cytotoxicity, CellTiter-Glo ATP luminescence; at 3 µM (top of the series)", "values": [{"smiles": "O=C(Nc1ccccc1F)N1C[C@@H]2N[C@H](C1)C2c1ccc(/C=C/c2ccccc2)cc1", "note": "(stereo partly drawn)", "activity change, negative = cytotoxicity": "21.6% (inactive)"}]}, {"assay": "loss of cell viability by ATP content – CellTiter-Glo, cytotoxicity control, dose response (AID 1259333)", "settings": "cytotoxicity, CellTiter-Glo ATP luminescence; at 3.5 µM (top of the series)", "values": [{"smiles": "O=C(Nc1ccc(C(F)(F)F)cc1)Nc1ccc2c(c1)[C@H]1C[C@@H](CC(=O)N3CCc4ccccc4C3)O[C@@H](CO)[C@H]1O2", "activity change, negative = cytotoxicity": "30.5% (inactive)"}, {"smiles": "N#C[C@H]1[C@H](c2ccc(C#CC3CCCCC3)cc2)[C@@H](CO)N1C(=O)Nc1ccc(F)cc1", "activity change, negative = cytotoxicity": "25.8% (inactive)"}, {"smiles": "COc1cccc(S(=O)(=O)N(C)C[C@H]2OCc3ccccc3-c3c(n(C)c4ccccc34)C(=O)N([C@@H](C)CO)C[C@H]2C)c1", "activity change, negative = cytotoxicity": "15.7% (inactive)"}, {"smiles": "CC(C)(C)c1cc(/C=C(\\C#N)C(N)=S)cc(C(C)(C)C)c1O", "activity change, negative = cytotoxicity": "26.8% (inactive)"}]}, {"assay": "loss of cell viability by ATP content – CellTiter-Glo, cytotoxicity control, dose response (AID 1259333)", "settings": "cytotoxicity, CellTiter-Glo ATP luminescence; at 10 µM (top of the series)", "values": [{"smiles": "O=C(Nc1nnc(C2CC2)s1)C1CC(=O)N(c2ccc3c(c2)OCCO3)C1", "note": "(stereo not drawn)", "activity change, negative = cytotoxicity": "52.3% (inactive)"}, {"smiles": "Cc1ccc(S(=O)(=O)CCC(=O)N(CCCN2CCOCC2)c2nc3ccccc3s2)cc1", "activity change, negative = cytotoxicity": "29.5% (inactive)"}, {"smiles": "Cc1csc(NC(=O)c2ccc(N3CCCC3=O)cc2)n1", "activity change, negative = cytotoxicity": "23.5% (inactive)"}, {"smiles": "O=C(NC(=S)/C(=C1\\CCCCCN1)[N+](=O)[O-])c1ccccc1", "activity change, negative = cytotoxicity": "16.4% (inactive)"}, {"smiles": "CC(C)C1CC(N(C)C)=CC(=S)N1", "note": "(stereo not drawn)", "activity change, negative = cytotoxicity": "24.5% (inactive)"}, {"smiles": "Cc1cccc(-c2ccc(C3[C@@H]4CN(C(=O)Nc5ccc(C(F)(F)F)cc5)C[C@H]3N4)cc2)c1", "note": "(stereo partly drawn)", "activity change, negative = cytotoxicity": "26.3% (inactive)"}, {"smiles": "CC(=O)OCC(=O)C1(O)CCC2C3CCC4=CC(=O)CCC4(C)C3(Cl)C(O)CC21C", "note": "(stereo not drawn)", "activity change, negative = cytotoxicity": "25.5% (inactive)"}, {"smiles": "COc1ccc(CN(CCC(c2ccc(F)cc2)C2CCOC(C)(C)C2)C(=O)c2ccco2)cc1", "note": "(stereo not drawn)", "activity change, negative = cytotoxicity": "263% (inactive)"}, {"smiles": "CC1=CC(=O)c2ccccc2C1=O", "activity change, negative = cytotoxicity": "36.2% (inactive)"}, {"smiles": "O=C1C(=NO)CCc2ccccc21", "activity change, negative = cytotoxicity": "115% (inactive)"}, {"smiles": "NS(=O)(=O)c1nn2cc(-c3ccccc3)nc2s1", "activity change, negative = cytotoxicity": "65.7% (inactive)"}, {"smiles": "COc1cccc(S(=O)(=O)N(C)C[C@@H]2OCc3ccccc3-c3c(n(C)c4ccccc34)C(=O)N([C@H](C)CO)C[C@@H]2C)c1", "activity change, negative = cytotoxicity": "41.8% (inactive)"}, {"smiles": "O=c1cc(-c2ccccc2)oc2cc(O)cc(O)c12", "activity change, negative = cytotoxicity": "52.1% (inactive)"}, {"smiles": "CC(OC(=O)c1cc(Br)ccc1O)C(=O)Nc1ccc(S(=O)(=O)N2CCCC2)cc1", "note": "(stereo not drawn)", "activity change, negative = cytotoxicity": "47% (inactive)"}, {"smiles": "COc1ccc2c3c(n(C)c2c1)[C@H](CO)N(C(=O)Nc1ccc(F)cc1)CC31CCN(C(=O)Nc2ccc(F)cc2F)CC1", "activity change, negative = cytotoxicity": "29.2% (inactive)"}, {"smiles": "COc1ccc(S(=O)(=O)N(C)C[C@H]2Oc3ccc(NC(=O)Nc4ccc(C(F)(F)F)cc4)cc3C(=O)N([C@@H](C)CO)C[C@@H]2C)cc1", "activity change, negative = cytotoxicity": "33.2% (inactive)"}, {"smiles": "c1cncc(C2=NCCC2)c1", "activity change, negative = cytotoxicity": "36.6% (inactive)"}, {"smiles": "CC1CNCCN1S(=O)(=O)c1cccc2cnccc12", "note": "(stereo not drawn)", "activity change, negative = cytotoxicity": "-37.9% (inactive)"}, {"smiles": "CC(=O)Nc1ccc(S(=O)(=O)c2ccc(N)cc2)cc1", "activity change, negative = cytotoxicity": "13.9% (inactive)"}, {"smiles": "CCN1C(=O)C(CC(=O)Nc2ccc(OC)cc2)N(CCc2ccc(F)cc2)C1=S", "note": "(stereo not drawn)", "activity change, negative = cytotoxicity": "24.7% (inactive)"}, {"smiles": "C[C@@H]1CN([C@@H](C)CO)C(=O)c2cc(C#CCc3ccccc3)cnc2O[C@@H]1CN(C)C(=O)C1CCOCC1", "activity change, negative = cytotoxicity": "5.87% (inactive)"}, {"smiles": "CCCNC(=O)N1[C@H](C#N)[C@H](c2ccc(C#Cc3cccc(F)c3)cc2)[C@H]1CO", "activity change, negative = cytotoxicity": "16.9% (inactive)"}, {"smiles": "CCc1cnc(N2[C@H](C#N)[C@H](c3ccc(C#CCC4CCCC4)cc3)[C@@H]2CO)s1", "activity change, negative = cytotoxicity": "56.6% (inactive)"}, {"smiles": "C[C@H]1CN([C@@H](C)CO)C(=O)Cc2cc(NS(=O)(=O)c3cccs3)ccc2O[C@@H]1CN(C)Cc1ccc(Cl)c(Cl)c1", "activity change, negative = cytotoxicity": "29.8% (inactive)"}, {"smiles": "COC1=CC(=O)c2c(ccc3ncnc(N)c23)C1=O", "activity change, negative = cytotoxicity": "44.6% (inactive)"}, {"smiles": "Cc1ccc2nc(-c3cc(-c4ccccc4)no3)cn2c1", "activity change, negative = cytotoxicity": "51.5% (inactive)"}, {"smiles": "O=C(Nc1ccc2c(c1)OCCO2)C1CCCC1", "activity change, negative = cytotoxicity": "9.1% (inactive)"}, {"smiles": "c1ccc(-c2ccc(-c3ccccn3)nn2)nc1", "activity change, negative = cytotoxicity": "-10.2% (inactive)"}, {"smiles": "COc1cccc(OC)c1OCCNCC1COc2ccccc2O1", "note": "(stereo not drawn)", "activity change, negative = cytotoxicity": "48.7% (inactive)"}, {"smiles": "C[C@H]1CN([C@@H](C)CO)C(=O)c2cccc(NC(=O)Nc3ccc(F)cc3)c2O[C@H]1CN(C)S(=O)(=O)c1ccc(Cl)cc1", "activity change, negative = cytotoxicity": "55% (inactive)"}, {"smiles": "COc1ccc(C=Cc2ccc3ccccc3n2)c(OC)c1", "activity change, negative = cytotoxicity": "26.9% (inactive)"}, {"smiles": "CCN1C(=O)C(CC(=O)Nc2ccc(F)cc2)N(Cc2ccco2)C1=S", "note": "(stereo not drawn)", "activity change, negative = cytotoxicity": "18% (inactive)"}, {"smiles": "COc1ccc2cc(-c3cc(C(=O)O)c4ccccc4n3)ccc2c1", "activity change, negative = cytotoxicity": "6.64% (inactive)"}, {"smiles": "Cc1ccc(-c2ccccc2[C@H]2[C@@H](C#N)N(c3ncc(-c4ccccc4)s3)[C@@H]2CO)cc1", "activity change, negative = cytotoxicity": "47.4% (inactive)"}, {"smiles": "COc1ccc(Cl)cc1NC(=O)Nc1cc(C)nc2ccccc12", "activity change, negative = cytotoxicity": "60.2% (inactive)"}, {"smiles": "C[C@H](CO)N1C[C@H](C)[C@@H](CN(C)Cc2ccc(Cl)c(Cl)c2)OCCCC[C@H](C)Oc2ccc(NS(=O)(=O)c3cccs3)cc2C1=O", "activity change, negative = cytotoxicity": "9.11% (inactive)"}, {"smiles": "O=C(C[C@H]1CC[C@@H]2[C@H](COC[C@H](O)CN2Cc2cc(F)ccc2F)O1)NCc1ccc(Oc2ccccc2)cc1", "activity change, negative = cytotoxicity": "17% (inactive)"}, {"smiles": "C[C@H]1CN([C@@H](C)CO)C(=O)c2c(c3ccccc3n2C)-c2ccccc2CO[C@H]1CN(C)S(=O)(=O)c1ccc([N+](=O)[O-])cc1", "activity change, negative = cytotoxicity": "75.5% (inactive)"}, {"smiles": "Cc1noc(C)c1S(=O)(=O)Nc1ccc2c(c1)C(=O)N([C@@H](C)CO)C[C@@H](C)[C@@H](CN(C)C(=O)Nc1cccc3ccccc13)OCCCC[C@H](C)O2", "activity change, negative = cytotoxicity": "25.9% (inactive)"}, {"smiles": "O=C(COc1cccnc1[N+](=O)[O-])c1ccc(Cl)s1", "activity change, negative = cytotoxicity": "33.6% (inactive)"}, {"smiles": "Oc1ccc(Cc2ccccc2)c2cccnc12", "activity change, negative = cytotoxicity": "41.6% (inactive)"}, {"smiles": "C[C@@H]1CN([C@@H](C)CO)C(=O)Cc2cc(NS(=O)(=O)c3ccc(F)cc3)ccc2O[C@H]1CN(C)Cc1ccc(C(F)(F)F)cc1", "activity change, negative = cytotoxicity": "20.6% (inactive)"}, {"smiles": "Cc1ccc(N2CC(C(=O)Nc3nccs3)CC2=O)cc1Cl", "note": "(stereo not drawn)", "activity change, negative = cytotoxicity": "22.3% (inactive)"}, {"smiles": "N#Cc1cccc(-c2ccc([C@@H]3[C@@H]4CN(S(=O)(=O)c5ccc(-c6ccccc6)cc5)C[C@H]3N4)cc2)c1", "activity change, negative = cytotoxicity": "25.4% (inactive)"}, {"smiles": "CO[C@@H](CN(C)S(=O)(=O)c1ccc(Cl)cc1)[C@H](C)CN(Cc1ccccc1Cl)[C@@H](C)CO", "activity change, negative = cytotoxicity": "1.13% (inactive)"}, {"smiles": "O=C1CCCCC1Sc1nnc(-c2ccc3c(c2)OCO3)o1", "note": "(stereo not drawn)", "activity change, negative = cytotoxicity": "25.1% (inactive)"}, {"smiles": "CC(C)OC(=O)CC1C(=O)NCCN1C(=S)NC(=O)c1cccs1", "note": "(stereo not drawn)", "activity change, negative = cytotoxicity": "19.9% (inactive)"}, {"smiles": "COc1ccc(S(=O)(=O)N(C)C[C@@H]2Oc3ccc(NC(=O)Nc4ccc(C(F)(F)F)cc4)cc3C(=O)N([C@H](C)CO)C[C@H]2C)cc1", "activity change, negative = cytotoxicity": "22.7% (inactive)"}, {"smiles": "COC(=O)c1ccc2c(=O)[nH]c(COC(=O)c3c(-c4ccccc4)noc3C)nc2c1", "activity change, negative = cytotoxicity": "11% (inactive)"}, {"smiles": "c1ccc(OCCSc2nnc3sc4ccccc4n23)cc1", "activity change, negative = cytotoxicity": "-14.5% (inactive)"}, {"smiles": "C[C@H](CO)N1C[C@H](C)[C@H](CN(C)Cc2ccc(Oc3ccccc3)cc2)OCc2ccccc2-c2ccccc2C1=O", "activity change, negative = cytotoxicity": "15.4% (inactive)"}, {"smiles": "N#C[C@@H]1[C@@H](c2ccccc2)[C@H](CO)N1C(=O)CN1CCOCC1", "activity change, negative = cytotoxicity": "77.6% (inactive)"}, {"smiles": "C[C@@H]1CN([C@H](C)CO)C(=O)c2c(c3ccccc3n2C)-c2ccccc2CO[C@H]1CN(C)C(=O)Nc1ccccc1C(F)(F)F", "activity change, negative = cytotoxicity": "-16.3% (inactive)"}, {"smiles": "N#C[C@@H]1[C@@H](c2ccc(C#CC3CCCCC3)cc2)[C@H](CO)N1C(=O)Nc1ccc(F)cc1", "activity change, negative = cytotoxicity": "28.9% (inactive)"}, {"smiles": "O=C(c1ccc(F)cc1)N1C[C@@H]2N[C@H](C1)C2c1ccc(/C=C/c2ccccc2)cc1", "note": "(stereo partly drawn)", "activity change, negative = cytotoxicity": "12.7% (inactive) and 35.5% (inactive)"}, {"smiles": "O=C(CCN1CCC(c2ccccc2)C1)c1ccc2c(c1)OCCO2", "note": "(stereo not drawn)", "activity change, negative = cytotoxicity": "28% (inactive)"}, {"smiles": "c1ccc(CCSc2nccn2-c2ccccc2)cc1", "activity change, negative = cytotoxicity": "33.3% (inactive)"}, {"smiles": "CC(C)(C)n1cc(C(=O)c2ccc3ccccc3c2O)cn1", "activity change, negative = cytotoxicity": "24.3% (inactive)"}, {"smiles": "O=C1C[C@H](c2ccccc2)C(=O)N[C@@H](c2ccccc2)C/C=C\\C[C@@H](c2ccccc2)N1", "activity change, negative = cytotoxicity": "72.2% (inactive)"}, {"smiles": "CSC1SCC2C(=O)N(C)C(C(C)C)C(=O)OCC(NC(=O)c3cnc4ccccc4n3)C(=O)NC(C)C(=O)N(C)C1C(=O)N(C)C(C(C)C)C(=O)OCC(NC(=O)c1cnc3ccccc3n1)C(=O)NC(C)C(=O)N2C", "note": "(stereo not drawn)", "activity change, negative = cytotoxicity": "62.7% (inactive)"}, {"smiles": "CC(=NNC(=S)N1CC2CCC(CC2)C1)c1nccs1", "activity change, negative = cytotoxicity": "126% (inactive)"}, {"smiles": "CCCCn1c(NC(=O)c2ccc(Br)o2)c(S(=O)(=O)c2ccccc2)c2nc3ccccc3nc21", "activity change, negative = cytotoxicity": "62.4% (inactive)"}, {"smiles": "COc1ccc(C(=O)CCN2CCc3cc(OC)c(OC)cc3C2)cc1", "activity change, negative = cytotoxicity": "22.2% (inactive)"}, {"smiles": "O=C(C1CC1)N1C[C@@H]2N[C@H](C1)C2c1ccc(-c2cccc(F)c2)cc1", "note": "(stereo partly drawn)", "activity change, negative = cytotoxicity": "-17.6% (inactive)"}, {"smiles": "c1ccc(-c2nnc(-c3ccccn3)nn2)nc1", "activity change, negative = cytotoxicity": "22.8% (inactive)"}, {"smiles": "COc1ccc(C#Cc2ccc([C@@H]3[C@H](CO)N4CCCCN(C(=O)Nc5cccc(F)c5)C[C@@H]34)cc2)cc1", "activity change, negative = cytotoxicity": "50.4% (inactive)"}, {"smiles": "CC(=O)[C@]1(O)Cc2c(O)c3c(c(O)c2[C@@H](O[C@H]2C[C@H](N)[C@H](O)[C@H](C)O2)C1)C(=O)c1ccccc1C3=O", "activity change, negative = cytotoxicity": "-5.56% (inactive)"}, {"smiles": "CC1CC(C)(C)Nc2ccc(OC(=O)c3ccco3)cc21", "note": "(stereo not drawn)", "activity change, negative = cytotoxicity": "203% (inactive)"}]}]}
